Results as given in patent publication US20060167109A1, “Methods of reducing rhinovirus contagion and related compositions” (priority 2002, published 2006).

What was measured:
Test in all cases: HRV cytopathic effect assay
Type in all cases: cell-based
Conditions in all cases: Human rhinovirus sp.
HRV serotype 89 = tested on: HRV serotype 89
Procedure: (§1) For sensitivity testing to pleconaril, the appropriate cells were seeded into 96 well plates at a concentration of 4×10^4/well. After an overnight incubation at 37° C., the medium was removed and the cells were infected with 150 μL of a dilution of virus previously titrated to give ≧85% lysis of the monolayer after 3 days of incubation. The plates were incubated for 1 hour at the appropriate temperature and then overlaid with 50 μL of medium containing serial 2-fold dilutions of pleconaril in 2% DMSO. The final DMSO concentration in the assay was always 0.5%. No virus and no pleconaril controls were included on each plate. All drug concentrations were run in quadruplicate. The plates were then incubated for 3 days at the appropriate temperature followed by processing as described above.

HRV serotype 8 = tested on: HRV serotype 8
Procedure: as §1

HRV serotype 53 = tested on: HRV serotype 53
Procedure: as §1

HRV serotype 36 = tested on: HRV serotype 36
Procedure: as §1

HRV serotype 65 = tested on: HRV serotype 65
Procedure: as §1

HRV serotype 3 = tested on: HRV serotype 3
Procedure: as §1

HRV serotype 10 = tested on: HRV serotype 10
Procedure: as §1

HRV serotype 12 = tested on: HRV serotype 12
Procedure: as §1

HRV serotype 31 = tested on: HRV serotype 31
Procedure: as §1

HRV serotype 40 = tested on: HRV serotype 40
Procedure: as §1

HRV serotype 98 = tested on: HRV serotype 98
Procedure: as §1

HRV serotype 81 = tested on: HRV serotype 81
Procedure: as §1

HRV serotype 6 = tested on: HRV serotype 6
Procedure: as §1

HRV serotype 30 = tested on: HRV serotype 30
Procedure: as §1

HRV serotype 24 = tested on: HRV serotype 24
Procedure: as §1

HRV serotype 29 = tested on: HRV serotype 29
Procedure: as §1

HRV serotype 42 = tested on: HRV serotype 42
Procedure: as §1

HRV serotype 97 = tested on: HRV serotype 97
Procedure: as §1

HRV serotype 62 = tested on: HRV serotype 62
Procedure: as §1

HRV serotype 71 = tested on: HRV serotype 71
Procedure: as §1

HRV serotype 80 = tested on: HRV serotype 80
Procedure: as §1

HRV serotype 25 = tested on: HRV serotype 25
Procedure: as §1

HRV serotype 41 = tested on: HRV serotype 41
Procedure: as §1

HRV serotype 17 = tested on: HRV serotype 17
Procedure: as §1

HRV serotype 18 = tested on: HRV serotype 18
Procedure: as §1

HRV serotype 7 = tested on: HRV serotype 7
Procedure: as §1

HRV serotype 22 = tested on: HRV serotype 22
Procedure: as §1

HRV serotype 67 = tested on: HRV serotype 67
Procedure: as §1

HRV serotype 70 = tested on: HRV serotype 70
Procedure: as §1

HRV serotype 57 = tested on: HRV serotype 57
Procedure: as §1

HRV serotype 69 = tested on: HRV serotype 69
Procedure: as §1

HRV serotype 60 = tested on: HRV serotype 60
Procedure: as §1

HRV serotype 1A = tested on: HRV serotype 1A
Procedure: as §1

HRV serotype 2 = tested on: HRV serotype 2
Procedure: as §1

HRV serotype 72 = tested on: HRV serotype 72
Procedure: as §1

HRV serotype 28 = tested on: HRV serotype 28
Procedure: as §1

HRV serotype 43 = tested on: HRV serotype 43
Procedure: as §1

HRV serotype 77 = tested on: HRV serotype 77
Procedure: as §1

HRV serotype 68 = tested on: HRV serotype 68
Procedure: as §1

HRV serotype 49 = tested on: HRV serotype 49
Procedure: as §1

HRV serotype 75 = tested on: HRV serotype 75
Procedure: as §1

HRV serotype 50 = tested on: HRV serotype 50
Procedure: as §1

HRV serotype 88 = tested on: HRV serotype 88
Procedure: as §1

SMILES: Cc1cc(CCCOc2c(C)cc(-c3noc(C(F)(F)F)n3)cc2C)on1 [pleconaril, 3-[3,5-dimethyl-4-[3-(3-methyl-5-isoxazolyl)propoxy]phenyl]-5-(trifluoromethyl)-1,2,4-oxadiazole]
- IC50 (HRV serotype 89; HRV89, Table 2, mean of at least two independent determinations): 0.05 ± 0.01 µM
- IC50 (HRV serotype 89; serotype 89): 0.05 ± 0.01 µM
- IC50 (HRV serotype 8): 3.42 ± 2.7 µM
- IC50 (HRV serotype 53): 0.28 ± 0.06 µM
- IC50 (HRV serotype 36): 0.11 ± 0.02 µM
- IC50 (HRV serotype 65): 0.33 ± 0.1 µM
- IC50 (HRV serotype 3; HRV3, Table 2, mean of at least two independent determinations): 0.09 ± 0.04 µM
- IC50 (HRV serotype 3; serotype 3): 0.09 ± 0.04 µM
- IC50 (HRV serotype 10): 0.13 ± 0.05 µM
- IC50 (HRV serotype 12): 0.39 ± 0.12 µM
- IC50 (HRV serotype 31): 0.13 ± 0.07 µM
- IC50 (HRV serotype 40): 0.07 ± 0.03 µM
- IC50 (HRV serotype 98): 1.8 ± 1.62 µM
- IC50 (HRV serotype 81): 0.3 ± 0.07 µM
- IC50 (HRV serotype 6): 0.06 ± 0.02 µM
- IC50 (HRV serotype 30): 0.23 ± 0.08 µM
- IC50 (HRV serotype 24): 0.21 ± 0.02 µM
- IC50 (HRV serotype 29): 0.27 ± 0.07 µM
- IC50 (HRV serotype 42): > 12.5 µM
- IC50 (HRV serotype 97): > 12.5 µM
- IC50 (HRV serotype 62): 0.16 ± 0.06 µM
- IC50 (HRV serotype 71): 0.02 ± 0.01 µM
- IC50 (HRV serotype 80): 0.17 ± 0.03 µM
- IC50 (HRV serotype 25): 0.1 ± 0.01 µM
- IC50 (HRV serotype 41): 1.75 ± 1.49 µM
- IC50 (HRV serotype 17): 0.23 ± 0.08 µM
- IC50 (HRV serotype 18): 0.24 ± 0.1 µM
- IC50 (HRV serotype 7): 0.05 ± 0.01 µM
- IC50 (HRV serotype 22): 0.04 ± 0.02 µM
- IC50 (HRV serotype 67): 0.25 ± 0.11 µM
- IC50 (HRV serotype 70): 0.3 ± 0.19 µM
- IC50 (HRV serotype 57): 0.17 ± 0.05 µM
- IC50 (HRV serotype 69): 6.77 ± 3.14 µM
- IC50 (HRV serotype 60): 0.48 ± 0.14 µM
- IC50 (HRV serotype 1A; HRV1A, Table 2, mean of at least two independent determinations): 0.43 ± 0.17 µM
- IC50 (HRV serotype 1A; serotype 1A): 0.43 ± 0.17 µM
- IC50 (HRV serotype 2; HRV2, Table 2, mean of at least two independent determinations): 0.03 ± 0.03 µM
- IC50 (HRV serotype 2; serotype 2): 0.03 ± 0.03 µM
- IC50 (HRV serotype 72): 0.94 ± 0.3 µM
- IC50 (HRV serotype 28): 0.2 ± 0.07 µM
- IC50 (HRV serotype 43): 0.23 ± 0.11 µM
- IC50 (HRV serotype 77): 0.55 ± 0.29 µM
- IC50 (HRV serotype 68): 0.03 ± 0.02 µM
- IC50 (HRV serotype 49): 0.17 ± 0.06 µM
- IC50 (HRV serotype 75): 0.11 ± 0.06 µM
- IC50 (HRV serotype 50; HRV50, Table 2, mean of at least two independent determinations): 0.35 ± 0.07 µM
- IC50 (HRV serotype 50; serotype 50): 0.35 ± 0.07 µM
- IC50 (HRV serotype 88): 0.1 ± 0.04 µM
